Calls of active or inactive are those of the source. The calls are words filed in the database; no cut-off is given here.
Assays:
[1] = target: Serine/threonine-protein kinase ULK1 (Homo sapiens) (UniProt O75385); assay: Inhibition of recombinant human ULK1 (1 to 314 residues) at 10 uM using casein as substrate measured after 40 mins in presence of [gamm33P]ATP by scintillation counting method relative to control
[2] = target: T1, Transcriptional enhancer factor TEF-3 (Homo sapiens, UniProt Q15561); assay: (§1) Inhibition of N-terminal His6 tagged human TEAD4-YBD (217 to 434 residues) expressed in Escherichia coli C43 (DE3) cells assessed as reduction in autopalmitoylation preincubated for 2 hrs followed by palmitoyl alkyne-coenzyme A addition and measured after 30 mins by immunoblot analysis
[3] = target: Proto-oncogene tyrosine-protein kinase Src (Homo sapiens) (UniProt P12931); assay: Inhibition of recombinant human Src (1 to 530 residues) at 10 uM using GGEEEEYFELVKKKK as substrate measured after 40 mins in presence of [gamma33P]ATP by scintillation counting method relative to control
[4] = target: Serine/threonine-protein kinase 4 (Homo sapiens) (UniProt Q13043); assay: Inhibition of recombinant full-length human MST1 at 10 uM using KKSRGDYMTMQIG as substrate measured after 40 mins in presence of [gamma33P]ATP by scintillation counting method relative to control
[5] = target: T1, Transcriptional enhancer factor TEF-3; assay: Binding affinity to N-terminal His6 tagged human TEAD4-YBD (217 to 434 residues) expressed in Escherichia coli C43 (DE3) cells assessed as covalent modification by measuring change in protein mass by mass spectral analysis
[6] = target: Fibroblast growth factor receptor 2 (Homo sapiens) (UniProt P21802); assay: Inhibition of recombinant human FGFR2 (456 to 770 residues) at 10 uM using poly(Glu, Tyr) 4:1 as substrate measured after 40 mins in presence of [gamma33P]ATP by scintillation counting method relative to control
[7] = target: 5'-AMP-activated protein kinase catalytic subunit alpha-2 (Homo sapiens) (UniProt P54646); assay: Inhibition of recombinant full length human AMPKalpha2 at 10 uM using AMARAASAAALARRR as substrate after 40 mins in presence of [gamma33P]ATP by scintillation counting method relative to control
[8] = target: Mitogen-activated protein kinase kinase kinase kinase 3 (Homo sapiens) (UniProt Q8IVH8); assay: Inhibition of recombinant human MAP4K3 (1 to 291 residues) at 10 uM using RLGRDKYKTLRQIRQ as substrate measured after 40 mins in presence of [gamma33P]ATP by scintillation counting method relative to control
[9] = target: Serine/threonine-protein kinase 17B (Homo sapiens) (UniProt O94768); assay: Inhibition of full-length recombinant human DRAK2 at 10 uM using KKRPQRRYSNVF as substrate after 120 mins by in presence of [gamma33P]ATP by scintillation counting method relative to control
[10] = target: Tyrosine-protein kinase ABL1 (Homo sapiens) (UniProt P00519); assay: Inhibition of human Abl (27 to end residues) at 10 uM using EAIYAAPFAKKK as substrate after 40 mins in presence of [gamma33P]ATP by scintillation counting method relative to control
[11] = target: Serine/threonine-protein kinase TAO2 (Homo sapiens) (UniProt Q9UL54); assay: Inhibition of recombinant human TAO2 (1 to 320 residues) at 10 uM using myelin basic protein as substrate measured after 40 mins in presence of [gamm33P]ATP by scintillation counting method relative to control
[12] = target: PI3-kinase p110-alpha/p85-alpha (Homo sapiens) (UniProt P27986+P42336); assay: Inhibition of full-length recombinant human PI3K (p110a/p85a) at 10 uM using phosphatidylinositol 4,5-bisphosphate as substrate after 40 mins by fluorescence based assay relative to control; assay type: protein-complex assay
[13] = target: LIM domain kinase 1 (Homo sapiens) (UniProt P53667); assay: Inhibition of recombinant human LIMK1 (285 to 638 residues) at 10 uM using cofilin as substrate measured after 40 mins in presence of [gamm33P]ATP by scintillation counting method relative to control
[14] = target: Serine/threonine-protein kinase NIM1 (Homo sapiens) (UniProt Q8IY84); assay: Inhibition of recombinant human full length NIM1 at 10 uM using KKKVSRSGLYRSPSMPENLNRPR as substrate incubated for 40 mins in presence of [gamma-33P]-ATP by scintillation counting method relative to control
[15] = target: Serine/threonine-protein kinase D2 (Homo sapiens) (UniProt Q9BZL6); assay: Inhibition of full-length recombinant human PKD2 at 10 uM using KKLNRTLSVA as substrate after 40 mins by in presence of [gamma33P]ATP by scintillation counting method relative to control
[16] = target: Myosin light chain kinase, smooth muscle (Homo sapiens) (UniProt Q15746); assay: Inhibition of recombinant human MLCK (1425 to 1771 residues) at 10 uM using […] as substrate measured after 40 mins in presence of [gamma33P]ATP by scintillation counting method relative to control
Homo sapiens = species on record: Homo sapiens; assay: Inhibition of TEAD transcriptional activity in human HCT116 cells assessed as reduction in CYR61 expression by qRT-PCR analysis; assay type: cell-based
[17] = target: NUAK family SNF1-like kinase 2 (Homo sapiens) (UniProt Q9H093); assay: Inhibition of recombinant human full length NUAK2 at 10 uM using KKKVSRSGLYRSPSMPENLNRPR as substrate incubated for 40 mins in presence of [gamma-33P]-ATP by scintillation counting method relative to control
[18] = target: LIM domain kinase 2 (Homo sapiens) (UniProt P53671); assay: Inhibition of human LIMK2 at 10 uM by radiometric assay relative to control
[19] = target: T1, Transcriptional enhancer factor TEF-3; assay: as §1, with “autopalmitoylation at 800 nM” for “autopalmitoylation”, “analysis relative to control” for “analysis”
[20] = target: T1, Transcriptional enhancer factor TEF-3; assay: Binding affinity to N-terminal His6-tagged human TEAD4-YBD (217 to 434 residues) expressed in Escherichia coli C43 (DE3) cells assessed as change in melting temperature at 1:4 ratio by SYPRO-dye based thermal shift assay
[21] = tested on: Ribosomal protein S6 kinase beta-1 (Homo sapiens), P23443 [T412E]; assay: Inhibition of recombinant human p70S6K T412E mutant (1 to 421 residues) at 10 uM using KKRNRTLTV as substrate measured after 40 mins in presence of [gamma33P]ATP by scintillation counting method relative to control
[22] = target: Transcription initiation factor TFIID subunit 1-like (Homo sapiens) (UniProt Q8IZX4); assay: Inhibition of recombinant human TAF1L (1428 to end residues) at 10 uM using RRRFRPASPLRGPPK as substrate measured after 120 mins in presence of [gamma33P]ATP by scintillation counting method relative to control
[23] = target: Bromodomain-containing protein 4 (Homo sapiens) (UniProt O60885); assay: Inhibition of human BRD4-BD1 at 10 uM relative to control

T1 sequence (Q15561 whole entry, the tested form may be a part): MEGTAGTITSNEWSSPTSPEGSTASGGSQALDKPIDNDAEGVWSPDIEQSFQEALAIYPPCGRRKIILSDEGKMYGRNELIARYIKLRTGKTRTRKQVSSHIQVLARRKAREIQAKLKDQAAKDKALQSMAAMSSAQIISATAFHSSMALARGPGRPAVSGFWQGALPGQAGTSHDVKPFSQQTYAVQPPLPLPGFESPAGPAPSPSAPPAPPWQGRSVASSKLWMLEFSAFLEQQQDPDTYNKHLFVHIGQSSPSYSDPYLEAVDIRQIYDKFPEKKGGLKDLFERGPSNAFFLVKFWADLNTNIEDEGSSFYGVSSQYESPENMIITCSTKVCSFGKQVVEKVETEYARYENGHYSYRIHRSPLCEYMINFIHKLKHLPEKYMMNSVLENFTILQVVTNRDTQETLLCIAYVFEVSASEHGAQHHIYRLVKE
Chain of LIM domain kinase 1 (Homo sapiens) (P53667 whole entry, looked up, the tested form may be a part): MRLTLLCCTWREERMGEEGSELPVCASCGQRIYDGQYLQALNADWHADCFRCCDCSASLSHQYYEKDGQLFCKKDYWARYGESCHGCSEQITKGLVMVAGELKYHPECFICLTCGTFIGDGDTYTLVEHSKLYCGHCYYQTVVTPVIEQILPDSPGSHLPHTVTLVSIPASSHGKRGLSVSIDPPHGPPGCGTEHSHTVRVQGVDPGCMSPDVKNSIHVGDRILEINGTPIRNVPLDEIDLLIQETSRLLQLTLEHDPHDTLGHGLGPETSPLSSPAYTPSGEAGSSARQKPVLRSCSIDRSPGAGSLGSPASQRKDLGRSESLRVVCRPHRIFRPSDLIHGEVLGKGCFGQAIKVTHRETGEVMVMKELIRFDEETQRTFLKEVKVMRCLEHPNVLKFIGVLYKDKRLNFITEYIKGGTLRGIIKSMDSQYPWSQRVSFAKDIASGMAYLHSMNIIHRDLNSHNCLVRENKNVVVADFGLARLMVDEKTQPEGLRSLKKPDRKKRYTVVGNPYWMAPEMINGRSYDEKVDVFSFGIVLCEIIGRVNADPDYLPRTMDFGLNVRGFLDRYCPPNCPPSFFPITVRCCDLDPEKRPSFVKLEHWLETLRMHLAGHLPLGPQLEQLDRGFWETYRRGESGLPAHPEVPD
Chain of Serine/threonine-protein kinase 17B (Homo sapiens) (O94768 whole entry): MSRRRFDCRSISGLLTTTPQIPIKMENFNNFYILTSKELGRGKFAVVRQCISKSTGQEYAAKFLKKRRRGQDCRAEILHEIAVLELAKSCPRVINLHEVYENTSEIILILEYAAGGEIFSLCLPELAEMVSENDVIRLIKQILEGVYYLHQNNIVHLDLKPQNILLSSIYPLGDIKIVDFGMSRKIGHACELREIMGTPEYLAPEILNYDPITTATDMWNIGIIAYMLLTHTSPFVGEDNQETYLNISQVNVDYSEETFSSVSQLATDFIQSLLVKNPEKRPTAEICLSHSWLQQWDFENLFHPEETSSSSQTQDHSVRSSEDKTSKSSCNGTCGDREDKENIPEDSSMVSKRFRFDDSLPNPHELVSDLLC
Chain of Serine/threonine-protein kinase ULK1 (Homo sapiens) (O75385 whole entry, the tested form may be a part): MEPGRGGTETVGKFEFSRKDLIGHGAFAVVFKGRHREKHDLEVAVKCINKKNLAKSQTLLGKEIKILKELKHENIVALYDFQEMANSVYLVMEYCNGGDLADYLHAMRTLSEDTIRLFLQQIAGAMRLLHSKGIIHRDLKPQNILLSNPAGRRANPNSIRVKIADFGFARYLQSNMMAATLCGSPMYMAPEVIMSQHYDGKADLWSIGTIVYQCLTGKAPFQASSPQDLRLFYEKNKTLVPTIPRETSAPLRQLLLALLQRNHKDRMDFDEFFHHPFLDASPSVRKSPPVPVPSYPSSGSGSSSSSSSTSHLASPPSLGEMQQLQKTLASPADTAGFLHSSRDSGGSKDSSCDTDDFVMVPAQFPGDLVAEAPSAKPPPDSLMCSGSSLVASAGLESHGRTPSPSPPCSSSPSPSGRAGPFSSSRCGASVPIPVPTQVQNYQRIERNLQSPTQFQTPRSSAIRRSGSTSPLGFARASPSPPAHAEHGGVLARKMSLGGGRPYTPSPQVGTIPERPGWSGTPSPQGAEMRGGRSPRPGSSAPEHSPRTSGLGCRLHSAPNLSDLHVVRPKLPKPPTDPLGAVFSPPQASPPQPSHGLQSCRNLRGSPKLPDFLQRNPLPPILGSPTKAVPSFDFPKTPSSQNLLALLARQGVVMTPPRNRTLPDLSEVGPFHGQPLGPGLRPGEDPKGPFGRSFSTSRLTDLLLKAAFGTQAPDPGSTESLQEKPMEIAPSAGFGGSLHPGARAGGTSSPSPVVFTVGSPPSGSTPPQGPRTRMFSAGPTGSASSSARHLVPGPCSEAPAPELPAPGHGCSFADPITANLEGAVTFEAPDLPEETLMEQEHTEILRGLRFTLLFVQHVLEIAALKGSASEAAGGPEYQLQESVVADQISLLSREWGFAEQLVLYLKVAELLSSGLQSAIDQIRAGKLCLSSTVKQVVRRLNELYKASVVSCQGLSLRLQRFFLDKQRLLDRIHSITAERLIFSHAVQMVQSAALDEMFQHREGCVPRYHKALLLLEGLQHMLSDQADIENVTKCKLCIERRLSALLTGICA
Chain of Tyrosine-protein kinase ABL1 (Homo sapiens) (P00519 whole entry, the tested form may be a part): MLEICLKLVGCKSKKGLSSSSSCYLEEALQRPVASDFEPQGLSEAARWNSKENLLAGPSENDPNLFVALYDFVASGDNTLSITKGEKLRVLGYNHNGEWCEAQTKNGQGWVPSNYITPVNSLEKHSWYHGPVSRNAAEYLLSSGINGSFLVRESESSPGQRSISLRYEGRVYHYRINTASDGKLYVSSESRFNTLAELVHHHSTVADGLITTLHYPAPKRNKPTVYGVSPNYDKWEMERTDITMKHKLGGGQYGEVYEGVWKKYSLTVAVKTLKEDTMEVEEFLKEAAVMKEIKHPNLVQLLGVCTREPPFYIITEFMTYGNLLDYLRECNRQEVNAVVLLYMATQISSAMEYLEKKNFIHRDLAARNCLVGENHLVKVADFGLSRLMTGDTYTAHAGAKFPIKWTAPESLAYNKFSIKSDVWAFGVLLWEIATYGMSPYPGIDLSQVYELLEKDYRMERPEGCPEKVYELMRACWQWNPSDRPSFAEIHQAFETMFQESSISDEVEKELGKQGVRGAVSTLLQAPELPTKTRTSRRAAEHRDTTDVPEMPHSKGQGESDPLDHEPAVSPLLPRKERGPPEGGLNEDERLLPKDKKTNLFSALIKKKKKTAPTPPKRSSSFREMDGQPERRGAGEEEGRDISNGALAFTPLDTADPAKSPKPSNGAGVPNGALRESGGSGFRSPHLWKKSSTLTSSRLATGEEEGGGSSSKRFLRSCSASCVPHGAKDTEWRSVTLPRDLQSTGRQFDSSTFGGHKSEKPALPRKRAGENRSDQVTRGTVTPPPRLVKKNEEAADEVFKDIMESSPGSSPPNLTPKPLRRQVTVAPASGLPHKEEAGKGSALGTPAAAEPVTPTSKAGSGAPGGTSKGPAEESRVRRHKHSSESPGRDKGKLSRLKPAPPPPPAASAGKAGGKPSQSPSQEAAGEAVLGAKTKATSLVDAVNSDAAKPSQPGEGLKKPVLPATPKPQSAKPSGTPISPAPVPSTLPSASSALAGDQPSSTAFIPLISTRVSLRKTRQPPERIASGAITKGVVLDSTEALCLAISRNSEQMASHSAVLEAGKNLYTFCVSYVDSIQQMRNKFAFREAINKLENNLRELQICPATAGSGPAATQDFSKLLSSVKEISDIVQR
Chain of Serine/threonine-protein kinase 4 (Homo sapiens) (Q13043 whole entry, the tested form may be a part): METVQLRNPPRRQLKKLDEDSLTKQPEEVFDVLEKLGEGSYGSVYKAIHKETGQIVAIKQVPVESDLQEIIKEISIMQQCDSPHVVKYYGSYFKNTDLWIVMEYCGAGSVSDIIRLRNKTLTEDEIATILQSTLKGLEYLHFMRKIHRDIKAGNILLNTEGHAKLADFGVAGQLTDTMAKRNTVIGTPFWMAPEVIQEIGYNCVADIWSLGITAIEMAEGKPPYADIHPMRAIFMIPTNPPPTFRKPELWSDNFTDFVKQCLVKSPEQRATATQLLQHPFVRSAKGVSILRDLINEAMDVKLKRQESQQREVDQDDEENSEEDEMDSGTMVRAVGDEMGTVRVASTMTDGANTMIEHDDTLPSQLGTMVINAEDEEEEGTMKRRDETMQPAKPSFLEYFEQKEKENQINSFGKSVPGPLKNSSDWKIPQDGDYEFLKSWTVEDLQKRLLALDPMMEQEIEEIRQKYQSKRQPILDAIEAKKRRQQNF
Chain of Proto-oncogene tyrosine-protein kinase Src (Homo sapiens) (P12931 2-536 limits assumed): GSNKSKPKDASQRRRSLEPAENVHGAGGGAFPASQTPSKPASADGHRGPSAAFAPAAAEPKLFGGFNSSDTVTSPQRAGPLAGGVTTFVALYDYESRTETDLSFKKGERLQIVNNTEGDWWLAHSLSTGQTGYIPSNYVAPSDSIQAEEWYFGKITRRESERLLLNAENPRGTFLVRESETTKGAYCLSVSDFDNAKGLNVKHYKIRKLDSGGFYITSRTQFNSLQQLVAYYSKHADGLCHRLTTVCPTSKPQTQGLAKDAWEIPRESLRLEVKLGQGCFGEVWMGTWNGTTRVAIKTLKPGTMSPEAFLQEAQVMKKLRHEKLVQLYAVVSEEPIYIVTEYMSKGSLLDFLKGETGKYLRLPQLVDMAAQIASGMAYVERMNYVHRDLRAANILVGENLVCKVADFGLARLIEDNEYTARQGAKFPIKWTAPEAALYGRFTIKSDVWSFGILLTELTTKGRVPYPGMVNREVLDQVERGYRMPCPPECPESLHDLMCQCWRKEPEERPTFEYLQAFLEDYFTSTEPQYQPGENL

C=CS(=O)(=O)Nc1ccc(Cc2ccc3ccccc3c2)cc1
inhibition [1]: 7% | IC50 [2]: 197 nM | inhibition [3]: 17% | inhibition [4]: 0% | Activity [5]: Active | inhibition [6]: -4% | inhibition [7]: 5% | inhibition [8]: 9% | inhibition [9]: -3% | inhibition [10]: 7% | inhibition [11]: 22% | inhibition [12]: 16% | inhibition [13]: -1% | inhibition [14]: -5% | inhibition [15]: -4% | inhibition [16]: 5% | inhibition (Homo sapiens): Dose-dependent effect | inhibition [17]: -6% | inhibition [18]: -8% | inhibition [19]: 91.6% | ΔTm [20]: 7.5 °C | inhibition [21]: 9% | inhibition [22]: -4% | inhibition [23]: 10%
